Reference: patent US7838463B2, “Safeners based on acrylic-aliphatic carboxylic acid derivatives” (Bayer CropScience AG, priority 2003, dated 2010)

Columns and labels:
Assay type in all cases: in vivo
[1] = system: Zea mays (corn), cv. 'Lorenzo'; assay: Post-emergence application of herbicide H2 (foramsulfuron) and safener by the tank mix method: crop damage; conditions: for Safener action as % damage reduction in crop plants: ZEAMA, versus herbicide alone
Excerpt: (§1) Seeds of various crop plants and weed species were sown in sandy loam soil in round plastic pots of a diameter of 13 cm and covered with a layer of sandy loam of a thickness of about 1 cm. The pots were placed in a greenhouse under favorable growth conditions for a period of about two to three weeks, allowing the plants to reach a growth stage of 2 to 4 leaves. The herbicides in the form of liquid (for example emulsion concentrates) or dry (for example water-dispersible powders) formulations were mixed with a standard additive (based on rapeseed oil methyl ester), diluted with deionized water to the required concentrations and applied to the green parts of the plants and the uncovered part of the soil surface with a spray bar using a water application rate of 300 liters per hectare. In the experiment shown below, safener and the herbicide foramsulfuron were in each case used as 20 percent strength water-dispersible powder (results see table 1.2.1). The pots were placed in a greenhouse under favorable growth conditions. Visual scoring of the herbicidal action was carried out four weeks after the herbicide application. Evaluation was carried out on a percentage basis by comparison with untreated control plants (0%=no noticeable effect compared with the untreated plant, 100%=treated plant dies).

[2] = system: Amaranthus retroflexus; assay: Post-emergence application of herbicide H2 (foramsulfuron) and safener by the tank mix method: herbicidal action; conditions: four weeks
Excerpt: as §1

[3] = system: Setaria viridis; assay: as above; conditions: four weeks
Excerpt: as §1

[4] = system: Zea mays (corn), cv. 'Lorenzo'; assay: Pre-emergence application of herbicide H1 (isoxaflutole) and safener by the tank mix method: crop damage; conditions: herbicide H1 (isoxaflutole) 100 g a.i./ha alone, no safener, pre-emergence; four weeks
Method: (§2) Seeds of various crop plants and weed species were sown in sandy loam soil in round plastic pots of a diameter of 13 cm and covered with a layer of sandy loam of a thickness of about 1 cm. Herbicides and safeners in the form of liquid (for example emulsion concentrates) or dry (for example water-dispersible powders) formulations were diluted with deionized water to the required concentrations and applied to the surface of the soil with a spray bar using a water application rate of 300 liters per hectare. In the experiment shown below, the safeners were used as 20 percent strength water-dispersible powders and the herbicide isoxaflutole was used as an aqueous suspension concentrate (see table 1.1.1). The pots were placed in a greenhouse under favorable growth conditions. Visual scoring of the herbicidal action was carried out four weeks after the herbicide application. Evaluation was carried out on a percentage basis by comparison with untreated control plants (0%=no noticeable effect compared with the untreated plant, 100%=treated plant dies).

[5] = system: Glycine max (soybean), cv. 'Lambert'; assay: Pre-emergence application of herbicide H1 (isoxaflutole) after seed dressing with safener; conditions: untreated seed (no safener), herbicide H1 (isoxaflutole) 100 g a.i./ha pre-emergence; four weeks
Method: (§3) The number of crop plant seeds required for each application rate of safener was calculated. Sufficient seeds were weighed-out into glass bottles having a screw-on lid. The volume of the glass bottles was approximately twice that of the seeds weighed out.
(§4) The safeners were formulated as 20 percent strength water-dispersible powders. These formulations were weighed out to give the required application rates (g of a.i./kg of seed). The samples were added to the seed in the glass containers, and sufficient water to form a suitable seed dressing was then added. The glass bottles were closed and then mounted in an overhead shaker (which turns the bottles at moderate speed for a period of up to one hour) so that the seeds were uniformly covered with the seed dressing. The bottles were opened and the seed was ready for use in pre-emergence or post-emergence experiments, as described below.
(§5) The seeds which had been treated with safeners and untreated seeds as controls were sown in sandy loam soil in round plastic pots of a diameter of 13 cm and covered with a layer of sandy loam of a thickness of about 1 cm. The herbicides in the form of liquid (for example emulsion concentrates) or dry (for example water-dispersible powders) formulations were diluted with deionized water to the required concentrations and applied to the surface of the soil with a spray bar using a water application rate of 300 liters per hectare. In the two experiments shown below (results see tables 2.2.1 and 2.2.2), the herbicide isoxaflutole was used as an aqueous suspension concentrate.
(§6) The pots were placed in a greenhouse under favorable growth conditions. Visual scoring of the herbicidal action was carried out four weeks after the herbicide application. Evaluation was carried out on a percentage basis by comparison with untreated control plants (0%=no noticeable effect compared with the untreated plant, 100%=treated plant dies).

[6] = system: Zea mays (corn), cv. 'Lorenzo'; assay: as above; conditions: untreated seed (no safener), herbicide H1 (isoxaflutole) 100 g a.i./ha pre-emergence; four weeks
Method: as §3, §4, §5, §6

[7] = system: Chenopodium album; assay: Pre-emergence application of herbicide H1 (isoxaflutole) and safener by the tank mix method: herbicidal action; conditions: herbicide H1 (isoxaflutole) 100 g a.i./ha alone, no safener, pre-emergence; four weeks
Method: as §2

[8] = system: Setaria viridis; assay: as above; conditions: herbicide H1 (isoxaflutole) 100 g a.i./ha alone, no safener, pre-emergence; four weeks
Method: as §2

[9] = system: Zea mays (corn), cv. 'Lorenzo'; assay: Post-emergence application of herbicide H2 (foramsulfuron) after seed dressing with safener; conditions: untreated seed (no safener), herbicide H2 (foramsulfuron) 40 g a.i./ha post-emergence; four weeks
Method: The number of crop plant seeds required for each application rate of safener was calculated. Sufficient seeds were weighed-out into glass bottles having a screw-on lid. The volume of the glass bottles was approximately twice that of the seeds weighed out. The safeners were formulated as 20 percent strength water-dispersible powders. These formulations were weighed out to give the required application rates (g of a.i./kg of seed). The samples were added to the seed in the glass containers, and sufficient water to form a suitable seed dressing was then added. The glass bottles were closed and then mounted in an overhead shaker (which turns the bottles at moderate speed for a period of up to one hour) so that the seeds were uniformly covered with the seed dressing. The bottles were opened and the seed was ready for use in pre-emergence or post-emergence experiments, as described below. The seeds treated with safener and untreated seeds were sown in sandy loam soil in round plastic pots of a diameter of 13 cm and covered with a layer of sandy loam of a thickness of about 1 cm. The pots were placed in a greenhouse under favorable growth conditions for a period of about two to three weeks, allowing the plants to reach a growth stage of 2 to 4 leaves. The herbicides in the form of liquid (for example emulsion concentrates) or dry (for example water-dispersible powders) formulations were mixed with a standard additive (based on rapeseed oil methyl ester), diluted with deionized water to the required concentrations and applied to the green parts of the plants and the uncovered part of the soil surface with a spray bar using a water application rate of 300 liters per hectare. In the experiment shown below, the herbicide foramsulfuron was used as 20 percent strength water-dispersible powder (results see table 2.3.1). The pots were placed in a greenhouse under favorable growth conditions. Visual scoring of the herbicidal action was carried out four weeks after the herbicide application. Evaluation was carried out on a percentage basis by comparison with untreated control plants (0%=no noticeable effect compared with the untreated plant, 100%=treated plant dies).

[10] = system: Zea mays (corn), cv. 'Lorenzo'; assay: Post-emergence application of herbicide H3 (glufosinate-ammonium) and safener by the tank mix method: crop damage; conditions: herbicide H3 (glufosinate-ammonium) 250 g a.i./ha alone, no safener, post-emergence; four weeks
Excerpt: (§7) Seeds of various crop plants and weed species were sown in sandy loam soil in round plastic pots of a diameter of 13 cm and covered with a layer of sandy loam of a thickness of about 1 cm. The pots were placed in a greenhouse under favorable growth conditions for a duration of about two to three weeks, allowing the plants to reach a growth stage of 2 to 4 leaves. The herbicides, in the form of liquid (for example emulsion concentrates, aqueous solutions) or dry (for example water-dispersible powders) formulations, were diluted with deionized water to the required concentrations and applied to the green parts of the plants and the uncovered part of the surface of the soil with a spray bar using a water application rate of 300 liters per hectare. In the experiment shown below, the safeners were used as 20 percent strength water-dispersible powders and the herbicide glufosinate-ammonium as a commercial 20 percent strength aqueous surfactant-containing solution (results see table 1.2.2).
(§8) The pots were placed in a greenhouse under favorable growth conditions. Visual scoring of the herbicidal action was carried out four weeks after the herbicidal application. Evaluation was carried out on a percentage basis by comparison with untreated control plants (0%=no noticeable effect compared with the untreated plant, 100%=treated plant dies).

[11] = system: Amaranthus retroflexus; assay: Post-emergence application of herbicide H3 (glufosinate-ammonium) and safener by the tank mix method: herbicidal action; conditions: herbicide H3 (glufosinate-ammonium) 250 g a.i./ha alone, no safener, post-emergence; four weeks
Excerpt: as §7, §8

[12] = system: Chenopodium album; assay: as above; conditions: herbicide H3 (glufosinate-ammonium) 250 g a.i./ha alone, no safener, post-emergence; four weeks
Excerpt: as §7, §8

[13] = safener 250 g a.i./ha + herbicide H2 (foramsulfuron) 40 g a.i./ha, post-emergence tank mix
[14] = safener 250 g a.i./ha + herbicide H2 (foramsulfuron) 40 g a.i./ha, post-emergence tank mix, visual scoring four weeks after application
[15] = herbicide H2 (foramsulfuron) 40 g a.i./ha alone, no safener, post-emergence

SMILES	Safener action as % damage reduction in crop plants [1, 13] [%]	% damage in ZEAMA [1, 14] [%]	Herbicidal action as % damage in AMARE [2, 13] [%]	Herbicidal action as % damage in SETVI [3, 13] [%]	further results
O=C(O)C=Cc1ccccc1F [Comp. 146, 2-fluorocinnamic acid]	72	10	98	92	–
COc1ccc(C=CC(=O)O)cc1 [Comp. 154, 4-methoxycinnamic acid]	67	12	96	95	–
CCOC(=O)C=Cc1cccc(O)c1 [Comp. 191, ethyl 3-hydroxycinnamate]	56	16	99	96	–
CS(=O)(=O)c1cc(C(F)(F)F)ccc1C(=O)c1cnoc1C1CC1 [Herbicide H1, isoxaflutole, reference compound]	–	–	–	–	% damage in ZEAMA [4]: 27%; % damage in GLXMA [5]: 83%; % damage in ZEAMA [6]: 25%; Herbicidal action as % damage in CHEAL [7]: 92%; Herbicidal action as % damage in SETVI [8]: 95%
COc1cc(OC)nc(NC(=O)NS(=O)(=O)c2cc(NC=O)ccc2C(=O)N(C)C)n1 [Herbicide H2, foramsulfuron, reference compound]	–	–	–	–	% damage in ZEAMA [9]: 32%; % damage in ZEAMA ([1]; herbicide H2 (foramsulfuron) 40 g a.i./ha alone, no safener, post-emergence, four weeks): 36%; Herbicidal action as % damage in AMARE [2, 15]: 94%; Herbicidal action as % damage in SETVI [3, 15]: 95%
CP(=O)(O)CCC(N)C(=O)O (stereo not drawn) [Herbicide H3, glufosinate-ammonium, reference compound]	–	–	–	–	% damage in ZEAMA [10]: 62%; Herbicidal action as % damage in AMARE [11]: 90%; Herbicidal action as % damage in CHEAL [12]: 92%
